Biological target: T1, KCNQ2/3 channels (Homo sapiens, UniProt O43525+O43526)
T1 construct: expressed in transfected cells
Test: Fluorescence assay using a voltage sensitive dye (fluorimetry)
Format: cell-based
Settings: CHO-K1 cells expressing KCNQ2/3; for Emax: CHO-K1, plateau effect relative to saturated retigabine (50 μM) = 100%, negative values = antagonistic, read-out: Fluorimetry % efficacy (retigabine = 100%); for EC50: IC50 where % efficacy is negative, read-out: Fluorimetry EC50/IC50

T1 sequence (O43526 whole entry): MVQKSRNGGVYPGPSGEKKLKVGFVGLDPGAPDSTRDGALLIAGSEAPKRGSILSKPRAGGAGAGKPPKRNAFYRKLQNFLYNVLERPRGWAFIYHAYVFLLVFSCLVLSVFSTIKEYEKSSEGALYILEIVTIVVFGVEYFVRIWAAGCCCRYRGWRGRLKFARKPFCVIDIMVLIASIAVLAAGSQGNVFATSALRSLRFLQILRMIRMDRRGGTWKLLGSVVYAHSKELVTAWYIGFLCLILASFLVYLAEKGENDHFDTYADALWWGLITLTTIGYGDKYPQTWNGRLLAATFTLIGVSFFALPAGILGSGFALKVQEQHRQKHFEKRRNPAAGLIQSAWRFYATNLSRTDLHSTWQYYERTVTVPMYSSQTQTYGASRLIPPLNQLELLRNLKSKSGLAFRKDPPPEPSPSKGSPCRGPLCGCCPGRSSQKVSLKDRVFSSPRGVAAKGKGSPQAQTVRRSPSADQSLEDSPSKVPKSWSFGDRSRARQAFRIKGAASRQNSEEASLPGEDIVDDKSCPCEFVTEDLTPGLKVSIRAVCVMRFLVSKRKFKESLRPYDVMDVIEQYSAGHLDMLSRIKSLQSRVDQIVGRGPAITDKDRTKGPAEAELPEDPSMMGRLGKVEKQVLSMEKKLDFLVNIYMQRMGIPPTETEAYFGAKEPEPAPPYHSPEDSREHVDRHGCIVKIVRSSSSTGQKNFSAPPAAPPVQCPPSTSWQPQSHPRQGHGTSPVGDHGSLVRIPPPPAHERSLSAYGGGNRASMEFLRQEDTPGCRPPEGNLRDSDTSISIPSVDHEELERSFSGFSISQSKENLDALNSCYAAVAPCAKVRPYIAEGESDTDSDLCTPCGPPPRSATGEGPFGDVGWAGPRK
T1 sequence (O43525 whole entry): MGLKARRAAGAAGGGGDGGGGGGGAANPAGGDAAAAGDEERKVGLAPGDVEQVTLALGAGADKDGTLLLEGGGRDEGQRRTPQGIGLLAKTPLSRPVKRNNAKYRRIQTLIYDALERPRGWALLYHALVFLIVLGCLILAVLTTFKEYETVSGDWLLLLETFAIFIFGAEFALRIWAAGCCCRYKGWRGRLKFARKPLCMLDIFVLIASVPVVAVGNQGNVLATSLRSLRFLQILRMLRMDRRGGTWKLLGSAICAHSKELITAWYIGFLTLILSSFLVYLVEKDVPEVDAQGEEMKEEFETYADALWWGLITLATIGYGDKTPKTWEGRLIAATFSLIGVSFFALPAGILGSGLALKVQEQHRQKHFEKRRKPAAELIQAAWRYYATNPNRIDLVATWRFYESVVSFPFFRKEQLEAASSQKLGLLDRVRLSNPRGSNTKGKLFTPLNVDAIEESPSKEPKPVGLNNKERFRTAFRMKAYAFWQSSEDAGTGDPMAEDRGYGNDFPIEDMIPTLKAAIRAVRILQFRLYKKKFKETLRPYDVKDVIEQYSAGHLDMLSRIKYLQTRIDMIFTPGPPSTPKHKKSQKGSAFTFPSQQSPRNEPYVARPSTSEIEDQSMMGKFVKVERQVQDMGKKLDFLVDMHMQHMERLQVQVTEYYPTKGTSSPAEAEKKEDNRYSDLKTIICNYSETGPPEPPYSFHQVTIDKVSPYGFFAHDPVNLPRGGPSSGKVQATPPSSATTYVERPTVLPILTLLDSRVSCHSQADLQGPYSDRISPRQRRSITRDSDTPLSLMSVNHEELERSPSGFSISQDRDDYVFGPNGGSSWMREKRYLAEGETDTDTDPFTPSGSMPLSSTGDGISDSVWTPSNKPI

| SMILES | Emax | EC50 |
| --- | --- | --- |
| CCSc1nc(N2CCOCC2)cc(C)c1C(=O)NCc1ccc(C(F)(F)F)cc1F [Example 135, 2-Ethylsulfanyl-N-[[2-fluoro-4-(trifluoromethyl)-phenyl]-methyl]-4-methyl-6-morpholin-4-yl-pyridine-3-carboxylic acid amide] | 43% | 54 nM |
| CCSc1nc(N2CCCCCC2)cc(C)c1C(=O)NCc1cccc(F)c1 [Example 136, 6-(Azepan-1-yl)-2-ethylsulfanyl-N-[(3-fluorophenyl)-methyl]-4-methyl-pyridine-3-carboxylic acid amide] | 171% | 108 nM |
| CCSc1nc(N2CCOCC2)cc(C)c1C(=O)NCc1ccc(OC)cc1 [Example 137, 2-Ethylsulfanyl-N-[(4-methoxyphenyl)-methyl]-4-methyl-6-morpholin-4-yl-pyridine-3-carboxylic acid amide] | 151% | 1070 nM |
| CCSc1nc(N2CCO[C@H](C)C2)cc(C)c1C(=O)NCc1cccc(F)c1 [Example 139, 2-Ethylsulfanyl-N-[(3-fluorophenyl)-methyl]-4-methyl-6-[(2R)-2-methyl-morpholin-4-yl]-pyridine-3-carboxylic acid amide] | 146% | 770 nM |
| CCSc1nc(N2CCNC(=O)C2)cc(C)c1C(=O)NCc1cccc(F)c1 [Example 143, 2-Ethylsulfanyl-N-[(3-fluorophenyl)-methyl]-4-methyl-6-(3-oxo-piperazin-1-yl)-pyridine-3-carboxylic acid amide] | 28% | – |
| CCSc1nc(N2CCOCC2)cc(C)c1C(=O)NCc1ccc(C#N)cc1 [Example 145, N-[(4-Cyano-phenyl)-methyl]-2-ethylsulfanyl-4-methyl-6-morpholin-4-yl-pyridine-3-carboxylic acid amide] | 145% | 673 nM |

Further lines, results first:

| Emax | EC50 | SMILES |
| --- | --- | --- |
| 235% | 392 nM | CCOc1nc(N2CCOCC2)cc(C)c1C(=O)NCCCC(F)(F)F [Example 133, 2-Ethoxy-4-methyl-6-morpholin-4-yl-N-(4,4,4-trifluoro-butyl)-pyridine-3-carboxylic acid amide] |
| 159% | 1140 nM | CCSc1nc(N2CCOCC2)cc(C)c1C(=O)NCc1ccc2c(c1)OCO2 [Example 134, N-(1,3-Benzodioxol-5-yl-methyl)-2-ethylsulfanyl-4-methyl-6-morpholin-4-yl-pyridine-3-carboxylic acid amide] |
| 125% | 170 nM | CCSc1nc(N2CCO[C@@H](C)C2)cc(C)c1C(=O)NCc1cccc(F)c1 [Example 138, 2-Ethylsulfanyl-N-[(3-fluorophenyl)-methyl]-4-methyl-6-[(2S)-2-methyl-morpholin-4-yl]-pyridine-3-carboxylic acid amide] |
| 227% | 1120 nM | COc1nc(N2CCOCC2)cc(C)c1C(=O)NCCCC(F)(F)F [Example 140, 2-Methoxy-4-methyl-6-morpholin-4-yl-N-(4,4,4-trifluoro-butyl)-pyridine-3-carboxylic acid amide] |
| 167% | 242 nM | CCSc1nc(N2CCOCC2)cc(C)c1C(=O)NCCCC1CC1 [Example 141, N-(3-Cyclopropyl-propyl)-2-ethylsulfanyl-4-methyl-6-morpholin-4-yl-pyridine-3-carboxylic acid amide] |
| 125% | 38 nM | CCSc1nc(N2CCOCC2)cc(C)c1C(=O)NCc1ccc(C(F)(F)F)c(F)c1 [Example 142, 2-Ethylsulfanyl-N-[[3-fluoro-4-(trifluoromethyl)-phenyl]-methyl]-4-methyl-6-morpholin-4-yl-pyridine-3-carboxylic acid amide] |
| 59% | – | CCSc1nc(N2CCN(C(C)=O)CC2)cc(C)c1C(=O)NCc1cccc(F)c1 [Example 144, 6-(4-Acetyl-piperazin-1-yl)-2-ethylsulfanyl-N-[(3-fluorophenyl)-methyl]-4-methyl-pyridine-3-carboxylic acid amide] |
